According to patent US20250387388A1, “COMPOUND AS TRK INHIBITOR AND/OR RET INHIBITOR AND USE THEREOF” (Medinno Pharmaceutical Technology (Zhuhai) Co., Ltd., priority 2022, published 2025):

System: phenol-induced cervicitis model in rats
Test: Phenol-induced cervicitis model in rats
Format: in vivo, SD rats
Description: • Blank Control Group (untreated) (N=5+2 rats) • Cervicitis Model Group (vehicle treatment: 20% DMA+65% PEG400+15% H2O) (N=8+2 rats) • Cervicitis Model+Positive Control Drug Group (Jieeryin lotion (1:5 dilution), 2 times/day, for 7 consecutive days) (N=8 rats) • Cervicitis Model+Low-Dose MDI-1228 Compound Lotion Group (dose: 3 mg/kg/time, 2 times/day, for 7 consecutive days) (N=8 rats) • Cervicitis Model+Medium-Dose MDI-1228 Compound Lotion Group (dose: 10 mg/kg/time, 2 times/day, for 7 consecutive days) (N=8 rats) • Cervicitis Model+High-Dose MDI-1228 Compound Lotion Group (dose: 30 mg/kg/time, 2 times/day, for 7 consecutive days) (N=8 animals) • Experimental Environment: Temperature 20° C.-26° C., humidity 40%-70%.
SD rats were acclimated for one week. After anesthesia with isoflurane, the rats were fixed in a supine position on the operation table with their limbs secured. A 1 mL syringe with a blunt needle was inserted approximately 1 cm into the rat's vagina, and 0.1 mL of 25% phenol slurry was slowly injected. The vaginal opening was immediately plugged with a sterile cotton ball, and the rat was kept in a head-down and tail-high position for 20 minutes. The injection was performed every 2 days, for a total of 3 times. The vaginal opening of the rats was observed, and the model was considered successful if there was white secretion, vaginal congestion, and swelling.
The successfully modelled rats were randomly divided into 6 groups. Animals in each group were treated according to their group assignment. The blank group (untreated) received no treatment. The positive control group was administrated with Jieeryin lotion (1:5 dilution) for vaginal irrigation twice a day, for 7 consecutive days. The low, medium, and high-dose MDI-1228 compound lotions were used for vaginal irrigation twice a day, for 7 consecutive days. The model group was given an equal amount of vehicle treatment, with the same way and duration as the test drug groups.
Clinical Symptoms Observation: The general condition of the rats (activity, diet, mental state) was continuously observed, and the rats were weighted before and after administration. Daily observations and recordings were made of changes in the local area and secretions of the rat's vulva, whether the vaginal opening is dry, and whether there is congestion, swelling in the vulva and vaginal mucosa, and whether there is vaginal fluid blood. Scoring was conducted according to the following table.
Organ Weight and Organ Index Calculation: After the last administration, the rats were sacrificed the next day, and the uterus was removed, with fat tissue and mesentery dissected away, and the weight of the cervix (from the vaginal opening to the bifurcation of the double uterus) and the liver and spleen were measured to calculate the organ index.
Pathological Detection: ELISA detection for serum markers IL-4, IL-6, IL-1β, TNF-α; ELISA detection for plasma CP; biochemical detection for MDA and T-SOD in cervical tissue.
HE Staining: Tissue samples from animal vaginal, cervical, and uterine were excised, fixed in 4% paraformaldehyde, dehydrated, embedded in paraffin, and sectioned and HE stained for observation of histopathological morphology changes. The reagents and instruments required for HE staining included: Hematoxylin staining solution (AR 11800-1, BOSTER); Eosin staining solution (ARl1800-2, BOSTER); Ultra-clean advanced mounting medium (YZB, BASO); Scott's blueing solution (G1865, Solarbio), etc. Medication refrigerator (BYC-310, Shandong Bokai Biotech); Microscope (CX41 OLYMPUS); Microtome (BQ-318D, Berne); Electric heating blast drying oven (DHG-9070A. Hengke Scientific Instrument Co., Ltd.). The taken tissue was rinsed with running water for several hours, dehydrated through a series of ethanol solutions (70%, 80%, 90%), and then treated with a mixture of pure alcohol and xylene at a ratio of 1:1 for 15 minutes, followed by xylene I for 15 minutes and xylene II for 15 minutes (until transparent). […]

[1] = 30 mg/kg/time, 2 times/day, 7 days
[2] = MDI-1228 at various doses (3, 10, 30 mg/kg)

Which “Vaginal, cervical and uterine tissue HE staining” value (3 mg/kg/time, 2 times/day, 7 days) does the source give for `CCc1cc(O)c(F)cc1-c1ccc2c(-c3nc4c([nH]3)CN(C(=O)N3CC[C@H](O)C3)C4)n[nH]c2c1` [MDI-1228, (S)-(2-(6-(2-ethyl-5-fluoro-4-hydroxyphenyl)-1H-indazol-3-yl)-4,6-dihydropyrrolo[3,4-d]imidazol-5-(1H)-yl)(3-hydroxylpyrrolidin-1-yl)ketone] here?
Its value is “still showed significant inflammatory cell infiltration in the entire tissue structure”.

And the “Vaginal, cervical and uterine tissue HE staining” value (10 mg/kg/time, 2 times/day, 7 days)?
Its value is “marked reduction in inflammatory cells”.

And the “Comprehensive score of cervicitis” value (30 mg/kg/time vaginal irrigation, 2 times/day, 7 days, vs. model group)?
Its value is “significantly reducing the comprehensive score of cervicitis”.

What about the Cervical index [1] of the same molecule?
The Cervical index was “significantly reduced”.

What about the “Reduction of area under the continuous scoring curve, edema score” value [1] of the same molecule?
The value was 19.61%.

What about the “Reduction of area under the continuous scoring curve, erythema score” value [1] of the same molecule?
The value was 29.99%.

And the “Reduction of area under the continuous scoring curve, secretion score” value [1]?
The value was 21.05%.

And the “Reduction of area under the continuous scoring curve, vulvar inflammation score” value [1]?
Its value is 23.42%.

And the “Vaginal, cervical and uterine tissue HE staining” value [1]?
Its value is “showing the best effect”.

And the “Conditions of erythema, edema, and secretion” value [2]?
Its value is “can improve the conditions of erythema, edema, and secretion”.

What about the “Levels of inflammatory factors” value [2] of the same molecule?
The value was “decrease the levels of inflammatory factors IL-10, IL-4, IL-6, and TNF-α”.
